In patent US8791132B2, “Compounds and methods for treatment of hypertension” (Medivation Technologies, Inc., priority 2011, dated 2014):
Where “and” joins values, the source holds several entries; their conditions need not be identical. Identical values can stand only once.

Key:
[1] = biological target: T1, human recombinant adrenergic α2A receptor (Homo sapiens, UniProt P08913); assay: Radioligand binding, adrenergic α2A ([3H]MK-912); conditions: for Percentage inhibition of ligand binding, Adrenergic α2A / inhibition at 0.1 µM / Percentage inhibition of ligand binding, Adrenergic α2A (0.1 μM): compound at 0.1 μM; for Percentage inhibition of ligand binding, Adrenergic α2A / inhibition at 0.1 µM: repeat assays, each datapoint shown; for Percentage inhibition of ligand binding, Adrenergic α2A / Percentage inhibition of ligand binding, Adrenergic α2A (0.1 μM): 0.1 µM; for inhibition at 0.1 µM: read-out: Percentage inhibition of ligand binding, Adrenergic α2A
T1 construct: expressed in transfected cells; host or cells: insect Sf9 cells
T1 sequence (P08913 1-465): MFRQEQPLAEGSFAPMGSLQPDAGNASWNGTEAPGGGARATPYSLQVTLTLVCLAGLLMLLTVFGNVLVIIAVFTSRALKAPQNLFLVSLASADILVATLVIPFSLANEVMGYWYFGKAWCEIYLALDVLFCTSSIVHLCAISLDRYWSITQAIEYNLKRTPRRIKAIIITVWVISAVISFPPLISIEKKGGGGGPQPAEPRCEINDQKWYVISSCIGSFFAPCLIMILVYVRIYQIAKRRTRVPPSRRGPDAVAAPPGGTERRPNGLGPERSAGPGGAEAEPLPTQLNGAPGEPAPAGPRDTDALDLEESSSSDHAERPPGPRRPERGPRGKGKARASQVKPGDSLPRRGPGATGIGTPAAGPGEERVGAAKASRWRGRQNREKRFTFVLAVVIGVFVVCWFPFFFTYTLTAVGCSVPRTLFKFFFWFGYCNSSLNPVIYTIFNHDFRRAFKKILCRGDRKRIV
Method in brief: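 Receptor expressed in insect Sf9 cells, assayed in 50 mM Tris-HCl pH 7.4 with 12.5 mM MgCl2 and 2 mM EDTA. Compounds incubated with 1 nM [3H]MK-912 for 60 min at 25 °C; nonspecific binding defined with 10 μM WB-4101. Filter-bound radioactivity counted; values are percent inhibition of specific binding.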

[2] = biological target: T2, rat adrenergic α1B receptor (Rattus norvegicus, UniProt P15823); assay: Radioligand binding, adrenergic α1B ([3H]Prazosin); conditions: [3H]Prazosin; for Percentage inhibition of ligand binding, Adrenergic α1B / Percentage inhibition of ligand binding, Adrenergic α1B (0.1 μM): 0.1 µM
T2 construct: rat adrenergic α1B receptor obtained from Wistar Rat liver; from tissue; host or cells: Wistar rat liver
T2 sequence (P15823 1-515): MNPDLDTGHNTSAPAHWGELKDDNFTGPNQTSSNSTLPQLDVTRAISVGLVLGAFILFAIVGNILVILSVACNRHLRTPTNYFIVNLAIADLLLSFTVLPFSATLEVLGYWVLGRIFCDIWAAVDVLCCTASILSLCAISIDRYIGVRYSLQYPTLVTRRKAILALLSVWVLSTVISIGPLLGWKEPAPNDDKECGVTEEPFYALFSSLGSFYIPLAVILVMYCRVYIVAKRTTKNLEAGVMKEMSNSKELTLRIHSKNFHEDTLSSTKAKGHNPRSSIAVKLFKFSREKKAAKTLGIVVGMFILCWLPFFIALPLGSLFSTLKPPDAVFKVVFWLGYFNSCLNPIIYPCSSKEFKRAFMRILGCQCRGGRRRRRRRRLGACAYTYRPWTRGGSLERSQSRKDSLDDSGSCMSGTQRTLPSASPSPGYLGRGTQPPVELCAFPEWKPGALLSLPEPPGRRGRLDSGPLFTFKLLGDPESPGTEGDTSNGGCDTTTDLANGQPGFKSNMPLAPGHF
Method in brief: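 Incubation ran 60 min at 25 °C in Tris-HCl buffer (50 mM, pH 7.4, 0.5 mM EDTA) with Wistar rat liver α1B receptor. 10 μM phentolamine set non-specific binding.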

[3] = biological target: T3, human recombinant adrenergic α2B receptor (Homo sapiens, UniProt P18089); assay: Radioligand binding, adrenergic α2B ([3H]Rauwolscine); conditions: for Percentage inhibition of ligand binding, Adrenergic α2B / inhibition at 0.03 µM / Percentage inhibition of ligand binding, Adrenergic α2B (0.03 μM): compound at 0.03 μM, [3H]Rauwolscine; for Percentage inhibition of ligand binding, Adrenergic α2B / inhibition at 0.03 µM: repeat assays, each datapoint shown; for inhibition at 0.03 µM: read-out: Percentage inhibition of ligand binding, Adrenergic α2B; for Percentage inhibition of ligand binding, Adrenergic α2B (0.03 μM): repeat datapoints each shown
T3 construct: expressed in transfected cells; host or cells: CHO-K1
T3 sequence (P18089 1-450): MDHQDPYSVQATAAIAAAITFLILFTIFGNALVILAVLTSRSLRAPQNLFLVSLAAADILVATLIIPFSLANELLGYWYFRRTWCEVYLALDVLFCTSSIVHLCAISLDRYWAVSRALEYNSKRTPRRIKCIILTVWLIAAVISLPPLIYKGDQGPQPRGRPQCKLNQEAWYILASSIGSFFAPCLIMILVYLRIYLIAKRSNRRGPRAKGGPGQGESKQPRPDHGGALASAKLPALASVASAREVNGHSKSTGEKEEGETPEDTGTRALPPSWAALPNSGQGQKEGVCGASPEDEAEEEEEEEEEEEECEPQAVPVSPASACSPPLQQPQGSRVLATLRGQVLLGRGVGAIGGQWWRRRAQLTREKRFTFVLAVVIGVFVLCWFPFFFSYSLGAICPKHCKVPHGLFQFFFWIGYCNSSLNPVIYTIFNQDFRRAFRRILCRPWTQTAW
Method in brief: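 Values are percent inhibition of specific radioligand binding. The receptor, expressed in CHO-K1 cells, was exposed to 2.5 nM [3H]Rauwolscine at 25° C for 60 min, with 10 μM Prazosin marking non-specific binding.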

[4] = compound at 0.1 μM, repeat assays, each datapoint shown
[5] = [3H]MK-912, repeat datapoints each shown
[6] = compound at 0.1 μM, repeat datapoints each shown

Structure (SMILES)	Percentage inhibition of ligand binding, Adrenergic α2A ([1]; [3H]MK-912) [%]	Percentage inhibition of ligand binding, Adrenergic α1B [2, 4] [%]	Percentage inhibition of ligand binding, Adrenergic α2B ([3]; 0.03 µM) [%]	other results
Cc1cnc2c(c1)c1c(n2CC(O)c2ccncc2)CCN(C)C1 (single isomer, unassigned) [55a, 2-(3,6-dimethyl-5,6,7,8-tetrahydro-1,6,9-triaza-fluoren-9-yl)-1-pyridin-4-yl-ethanol]	11	28	14	
Cc1ccc2c(c1)c1c(n2CC(C)(O)c2ccc[n+]([O-])c2)CCN(C)C1 (single isomer, unassigned) [56a]		1		inhibition at 0.1 µM ([1]; [3H]MK-912): 11%; inhibition at 0.03 µM [3]: 20%
CN1CCc2c(c3cccc(Cl)c3n2CC(C)(O)c2cccnc2)C1 (single isomer, unassigned) [57a, 1-(6-chloro-2-methyl-1,2,3,4-tetrahydro-pyrido[4,3-b]indol-5-yl)-2-pyridin-3-yl-propan-2-ol]		3	16	inhibition at 0.1 µM ([1]; [3H]MK-912): 22%
Cc1cnc2c(c1)c1c(n2CC(O)c2ccncc2)CCNC1 (single isomer, unassigned) [58a, 2-(3-methyl-5,6,7,8-tetrahydro-1,6,9-triaza-fluoren-9-yl)-1-pyridin-4-yl-ethanol]	9	7	5	
Cc1cnc2c(c1)c1c(n2CC(O)c2ccncc2)CCNC1 (single isomer, unassigned) [58b, 2-(3-methyl-5,6,7,8-tetrahydro-1,6,9-triaza-fluoren-9-yl)-1-pyridin-4-yl-ethanol]	0	24	39	
CN1CCc2c(c3cc(C(F)(F)F)ccc3n2CC(O)c2cccnc2)C1 (single isomer, unassigned) [59a]			15	inhibition at 0.1 µM ([1]; [3H]MK-912): 18%; inhibition at 0.1 µM ([2]; compound at 0.1 μM, repeat assays, each datapoint shown, read-out: Percentage inhibition of ligand binding, Adrenergic α1B): 11%
CN1CCc2c(c3cc(C(F)(F)F)ccc3n2CC(O)c2cccnc2)C1 (single isomer, unassigned) [59b]	12	7	31	
Cc1ccc2c(c1)c1c(n2CC(O)c2ccncc2)CC2CCCN2C1 (single isomer, unassigned) [76b]	18	71	34	
Cc1ccc2c(c1)c1c(n2CC(O)c2ccncc2)CC2CCCN2C1 (single isomer, unassigned) [76c]	5	33	35	
Cc1ccc2c(c1)c1c(n2CC(C)(O)c2ccc(F)cc2)CCN(C)C1 (single isomer, unassigned) [90b]	82	81		Percentage inhibition of ligand binding, Adrenergic α2B [3]: 97%
Cc1ccc(C(C)(O)Cn2c3c(c4cc(Cl)ccc42)CN(C)CC3)cn1 (single isomer, unassigned) [93a]				Ki [1]: 90.5 nM; Percentage inhibition of ligand binding, Adrenergic α2A (0.1 μM) [1, 5]: 25% and 36%; inhibition at 0.03 µM ([1]; read-out: Percentage inhibition of ligand binding, Adrenergic α2A (0.03 μM), compound at 0.03 μM, [3H]MK-912, repeat datapoints each shown): 14%; Percentage inhibition of ligand binding, Adrenergic α1B (0.1 μM) [2, 6]: 37%; inhibition at 0.03 µM ([2]; read-out: Percentage inhibition of ligand binding, Adrenergic α1B (0.03 μM), compound at 0.03 μM, repeat datapoints each shown): 13%; Percentage inhibition of ligand binding, Adrenergic α2B (0.03 μM) ([3]; 0.03 µM): 63% and 102%; Ki ([3]; read-out: Ki α2B): 1.14 nM
Cc1ccc(C(C)(O)Cn2c3c(c4cc(Cl)ccc42)CN(C)CC3)cn1 (single isomer, unassigned) [93b]				Percentage inhibition of ligand binding, Adrenergic α2A (0.1 μM) [1, 5]: −5%; Percentage inhibition of ligand binding, Adrenergic α1B (0.1 μM) [2, 6]: 1%; Percentage inhibition of ligand binding, Adrenergic α2B (0.03 μM) ([3]; 0.03 µM): 26%

Further lines, with some results ahead:

Percentage inhibition of ligand binding, Adrenergic α2A ([1]; [3H]MK-912) [%]	Percentage inhibition of ligand binding, Adrenergic α1B [2, 4] [%]	Percentage inhibition of ligand binding, Adrenergic α2B ([3]; 0.03 µM) [%]	Structure (SMILES)	other results
7	57	67	Cc1cnc2c(c1)c1c(n2CC(O)c2ccncc2)CCN(C)C1 (single isomer, unassigned) [55b, 2-(3,6-dimethyl-5,6,7,8-tetrahydro-1,6,9-triaza-fluoren-9-yl)-1-pyridin-4-yl-ethanol]	
17	6	28	Cc1ccc2c(c1)c1c(n2CC(C)(O)c2ccc[n+]([O-])c2)CCN(C)C1 (single isomer, unassigned) [56b]	
24	9	84	CN1CCc2c(c3cccc(Cl)c3n2CC(C)(O)c2cccnc2)C1 (single isomer, unassigned) [57b, 1-(6-chloro-2-methyl-1,2,3,4-tetrahydro-pyrido[4,3-b]indol-5-yl)-2-pyridin-3-yl-propan-2-ol]	
14	28		Cc1cnc2c(c1)c1c(n2CCc2ccc(C)nc2)CCN2CCCC12 (single isomer, unassigned) [74b, 10-methyl-7-(2-(6-methylpyridin-3-yl)ethyl)-2,3,5,6,7,11c-hexahydro-1H-pyrido[3′,2′:4,5]pyrrolo[2,3-g]indolizine]	inhibition at 0.03 µM [3]: 27%
21	78	92	Cc1ccc2c(c1)c1c(n2CC(O)c2ccncc2)CC2CCCN2C1 (single isomer, unassigned) [76a]	
40	51	91	Cc1ccc2c(c1)c1c(n2CC(O)c2ccncc2)CC2CCCN2C1 (single isomer, unassigned) [76d]	
71	74		Cc1ccc2c(c1)c1c(n2CC(C)(O)c2ccc(F)cc2)CCN(C)C1 (single isomer, unassigned) [90a]	inhibition at 0.03 µM [3]: 97%
